Laboratory results taken from ChEMBL document CHEMBL5465560, “Selectivity Literature for EUbOPEN Chemogenomic Library” (2024).

Legend:
[1] = tested on: Tyrosine-protein kinase ABL1 (Homo sapiens), P00519 [F317I]; assay: Selectivity interaction (KinomeScan (DiscoverX)) EUB0001049a ABL1; conditions: at 1 µM
[2] = biological target: T1, Serine/threonine-protein kinase 4 (Homo sapiens) (UniProt Q13043); assay: Selectivity interaction (KinomeScan (DiscoverX)) EUB0001049a STK4; conditions: at 1 µM
T1 sequence (whole entry): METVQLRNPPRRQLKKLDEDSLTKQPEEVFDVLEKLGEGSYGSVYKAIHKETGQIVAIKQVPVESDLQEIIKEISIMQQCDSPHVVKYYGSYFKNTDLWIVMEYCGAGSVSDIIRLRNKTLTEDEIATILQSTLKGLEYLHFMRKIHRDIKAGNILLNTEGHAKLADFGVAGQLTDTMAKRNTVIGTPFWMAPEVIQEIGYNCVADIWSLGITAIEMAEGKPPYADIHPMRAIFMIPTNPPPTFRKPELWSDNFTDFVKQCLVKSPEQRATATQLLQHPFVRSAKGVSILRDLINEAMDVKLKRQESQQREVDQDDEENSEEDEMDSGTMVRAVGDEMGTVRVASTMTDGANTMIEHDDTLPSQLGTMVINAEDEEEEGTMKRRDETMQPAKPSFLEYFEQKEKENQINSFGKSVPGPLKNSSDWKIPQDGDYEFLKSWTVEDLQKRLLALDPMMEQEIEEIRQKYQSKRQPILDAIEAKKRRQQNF

[3] = biological target: Dual specificity mitogen-activated protein kinase kinase 1 (Homo sapiens, UniProt Q02750); assay: Selectivity interaction (Kinase panel (Eurofins)) EUB0001564a MAP2K1; conditions: at 1 µM
Sequence of Dual specificity mitogen-activated protein kinase kinase 1 (Q02750 whole entry): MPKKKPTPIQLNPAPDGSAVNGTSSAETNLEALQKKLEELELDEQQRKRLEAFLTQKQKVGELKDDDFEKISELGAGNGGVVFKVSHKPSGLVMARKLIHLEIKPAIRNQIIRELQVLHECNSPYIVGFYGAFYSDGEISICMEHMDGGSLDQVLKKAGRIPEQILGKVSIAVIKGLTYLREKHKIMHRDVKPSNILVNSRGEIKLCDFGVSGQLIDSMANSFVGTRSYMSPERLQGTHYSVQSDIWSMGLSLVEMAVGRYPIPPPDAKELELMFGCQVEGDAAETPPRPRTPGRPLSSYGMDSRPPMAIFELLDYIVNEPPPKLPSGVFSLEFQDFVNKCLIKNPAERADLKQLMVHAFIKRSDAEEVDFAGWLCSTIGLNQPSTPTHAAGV

[4] = biological target: T2, Interleukin-1 receptor-associated kinase 3 (Homo sapiens) (UniProt Q9Y616); assay: Selectivity interaction (ActivX KiNativ screen (kinase selectivity in THP-1 cell lysates)) EUB0000639a IRAK3; assay type: subcellular; conditions: lysate, at 5 µM
T2 sequence (whole entry): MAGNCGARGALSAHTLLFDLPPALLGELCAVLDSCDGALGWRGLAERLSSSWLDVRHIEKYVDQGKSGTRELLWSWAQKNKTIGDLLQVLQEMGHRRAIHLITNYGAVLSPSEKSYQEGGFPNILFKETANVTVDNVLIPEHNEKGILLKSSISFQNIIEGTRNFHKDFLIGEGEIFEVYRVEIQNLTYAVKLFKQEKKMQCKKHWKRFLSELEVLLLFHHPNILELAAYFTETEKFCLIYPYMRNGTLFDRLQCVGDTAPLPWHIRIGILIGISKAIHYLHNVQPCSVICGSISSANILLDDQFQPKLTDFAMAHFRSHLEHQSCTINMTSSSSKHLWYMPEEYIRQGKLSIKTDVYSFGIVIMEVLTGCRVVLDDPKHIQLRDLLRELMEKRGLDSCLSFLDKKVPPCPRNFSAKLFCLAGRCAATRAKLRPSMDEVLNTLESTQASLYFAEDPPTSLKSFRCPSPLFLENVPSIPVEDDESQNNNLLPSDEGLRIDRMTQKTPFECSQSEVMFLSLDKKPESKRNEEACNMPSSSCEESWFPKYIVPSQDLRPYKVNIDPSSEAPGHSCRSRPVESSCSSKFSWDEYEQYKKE

[5] = biological target: Serine/threonine-protein kinase N1 (Homo sapiens, UniProt Q16512); assay: Selectivity interaction (ActivX KiNativ screen (kinase selectivity in THP-1 cell lysates)) EUB0000639a PKN1; assay type: subcellular; conditions: lysate, at 0.04 µM
Sequence of Serine/threonine-protein kinase N1 (Q16512 2-942 limits assumed): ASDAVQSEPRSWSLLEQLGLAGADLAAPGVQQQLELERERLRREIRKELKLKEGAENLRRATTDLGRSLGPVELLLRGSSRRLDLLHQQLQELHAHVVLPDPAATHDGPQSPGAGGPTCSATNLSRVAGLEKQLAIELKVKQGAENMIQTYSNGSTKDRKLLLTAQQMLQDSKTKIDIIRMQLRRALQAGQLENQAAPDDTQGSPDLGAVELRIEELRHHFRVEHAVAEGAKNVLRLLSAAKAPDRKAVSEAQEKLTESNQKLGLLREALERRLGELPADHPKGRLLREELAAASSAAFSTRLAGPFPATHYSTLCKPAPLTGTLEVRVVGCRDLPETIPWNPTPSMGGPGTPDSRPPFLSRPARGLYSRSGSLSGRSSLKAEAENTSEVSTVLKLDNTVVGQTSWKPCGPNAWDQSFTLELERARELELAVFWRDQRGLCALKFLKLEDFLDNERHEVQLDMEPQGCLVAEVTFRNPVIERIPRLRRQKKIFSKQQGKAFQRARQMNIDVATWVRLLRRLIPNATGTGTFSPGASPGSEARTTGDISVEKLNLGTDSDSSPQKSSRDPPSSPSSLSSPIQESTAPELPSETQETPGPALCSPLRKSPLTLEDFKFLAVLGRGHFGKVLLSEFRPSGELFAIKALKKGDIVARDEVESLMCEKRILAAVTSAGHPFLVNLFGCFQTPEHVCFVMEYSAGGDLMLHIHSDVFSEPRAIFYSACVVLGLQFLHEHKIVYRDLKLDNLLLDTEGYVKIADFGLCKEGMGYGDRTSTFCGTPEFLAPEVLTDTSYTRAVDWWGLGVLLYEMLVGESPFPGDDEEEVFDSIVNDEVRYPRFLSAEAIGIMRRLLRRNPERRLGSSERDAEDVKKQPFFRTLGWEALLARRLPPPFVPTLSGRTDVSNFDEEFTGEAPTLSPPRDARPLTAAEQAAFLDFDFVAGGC

[6] = biological target: STE20-like serine/threonine-protein kinase (Homo sapiens, UniProt Q9H2G2); assay: Selectivity interaction (ActivX KiNativ screen (kinase selectivity in THP-1 cell lysates)) EUB0000639a SLK; assay type: subcellular; conditions: lysate, at 0.2 µM
Sequence of STE20-like serine/threonine-protein kinase (Q9H2G2 whole entry, looked up): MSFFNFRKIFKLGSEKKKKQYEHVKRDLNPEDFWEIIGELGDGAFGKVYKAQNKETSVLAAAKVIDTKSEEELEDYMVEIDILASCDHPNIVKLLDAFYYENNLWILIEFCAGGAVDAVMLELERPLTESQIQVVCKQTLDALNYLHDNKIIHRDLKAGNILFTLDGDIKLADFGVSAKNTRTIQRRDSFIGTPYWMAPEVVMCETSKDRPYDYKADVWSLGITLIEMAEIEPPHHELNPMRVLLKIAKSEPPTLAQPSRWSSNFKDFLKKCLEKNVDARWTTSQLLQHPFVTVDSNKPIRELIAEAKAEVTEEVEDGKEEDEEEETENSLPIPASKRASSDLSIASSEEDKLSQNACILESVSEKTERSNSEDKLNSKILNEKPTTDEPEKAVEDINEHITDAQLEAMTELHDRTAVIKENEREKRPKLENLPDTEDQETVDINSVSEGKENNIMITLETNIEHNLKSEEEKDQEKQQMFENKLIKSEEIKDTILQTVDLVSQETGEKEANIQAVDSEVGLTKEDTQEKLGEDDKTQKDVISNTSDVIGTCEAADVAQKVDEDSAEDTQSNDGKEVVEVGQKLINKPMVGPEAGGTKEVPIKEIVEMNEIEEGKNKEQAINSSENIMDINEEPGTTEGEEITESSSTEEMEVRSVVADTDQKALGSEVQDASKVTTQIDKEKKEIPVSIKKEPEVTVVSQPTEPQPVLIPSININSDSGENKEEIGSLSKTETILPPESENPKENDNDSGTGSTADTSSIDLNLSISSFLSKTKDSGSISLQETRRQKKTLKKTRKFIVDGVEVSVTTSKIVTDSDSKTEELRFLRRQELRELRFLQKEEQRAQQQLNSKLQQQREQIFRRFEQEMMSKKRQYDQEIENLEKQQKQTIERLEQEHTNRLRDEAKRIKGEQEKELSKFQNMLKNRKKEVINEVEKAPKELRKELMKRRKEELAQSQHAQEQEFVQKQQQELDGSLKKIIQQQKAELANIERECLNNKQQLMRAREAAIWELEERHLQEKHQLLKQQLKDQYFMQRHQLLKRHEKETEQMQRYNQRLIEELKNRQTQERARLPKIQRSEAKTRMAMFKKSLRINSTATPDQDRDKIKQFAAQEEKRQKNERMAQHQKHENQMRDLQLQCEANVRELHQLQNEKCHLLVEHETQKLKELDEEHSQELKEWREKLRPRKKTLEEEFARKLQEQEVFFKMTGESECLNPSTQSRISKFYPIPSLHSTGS

[7] = biological target: T3, Hormonally up-regulated neu tumor-associated kinase (Homo sapiens) (UniProt P57058); assay: Selectivity interaction (KinomeScan (DiscoverX)) EUB0000595a HUNK; conditions: at 10 µM
T3 sequence (whole entry): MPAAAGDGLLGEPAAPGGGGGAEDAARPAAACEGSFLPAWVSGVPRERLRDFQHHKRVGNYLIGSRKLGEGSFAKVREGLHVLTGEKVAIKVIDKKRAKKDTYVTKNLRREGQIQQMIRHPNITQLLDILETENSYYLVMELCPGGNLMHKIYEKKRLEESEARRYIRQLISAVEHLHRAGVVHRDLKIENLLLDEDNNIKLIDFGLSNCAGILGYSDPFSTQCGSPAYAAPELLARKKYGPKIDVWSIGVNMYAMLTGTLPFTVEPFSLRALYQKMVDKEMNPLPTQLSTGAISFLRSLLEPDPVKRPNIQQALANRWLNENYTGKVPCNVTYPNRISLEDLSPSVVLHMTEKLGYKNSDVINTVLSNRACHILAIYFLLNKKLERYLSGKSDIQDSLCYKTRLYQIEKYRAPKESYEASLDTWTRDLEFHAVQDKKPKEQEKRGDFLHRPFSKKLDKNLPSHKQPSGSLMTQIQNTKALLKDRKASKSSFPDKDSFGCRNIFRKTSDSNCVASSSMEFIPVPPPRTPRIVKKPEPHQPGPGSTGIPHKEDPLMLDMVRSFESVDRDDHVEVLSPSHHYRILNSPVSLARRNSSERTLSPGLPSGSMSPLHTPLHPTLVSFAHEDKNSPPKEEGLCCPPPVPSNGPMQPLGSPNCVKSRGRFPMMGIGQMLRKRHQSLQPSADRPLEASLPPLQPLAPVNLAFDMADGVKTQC

[8] = biological target: Serine/threonine-protein kinase MARK1 (Homo sapiens) (UniProt Q9P0L2); assay: Selectivity interaction (Ambit KINOMEscan and KiNATiv profiling in Jurkat cells) EUB0000090b MARK1; assay type: cell-based; conditions: at 1 µM
Sequence of Serine/threonine-protein kinase MARK1 (Homo sapiens) (Q9P0L2 whole entry, looked up): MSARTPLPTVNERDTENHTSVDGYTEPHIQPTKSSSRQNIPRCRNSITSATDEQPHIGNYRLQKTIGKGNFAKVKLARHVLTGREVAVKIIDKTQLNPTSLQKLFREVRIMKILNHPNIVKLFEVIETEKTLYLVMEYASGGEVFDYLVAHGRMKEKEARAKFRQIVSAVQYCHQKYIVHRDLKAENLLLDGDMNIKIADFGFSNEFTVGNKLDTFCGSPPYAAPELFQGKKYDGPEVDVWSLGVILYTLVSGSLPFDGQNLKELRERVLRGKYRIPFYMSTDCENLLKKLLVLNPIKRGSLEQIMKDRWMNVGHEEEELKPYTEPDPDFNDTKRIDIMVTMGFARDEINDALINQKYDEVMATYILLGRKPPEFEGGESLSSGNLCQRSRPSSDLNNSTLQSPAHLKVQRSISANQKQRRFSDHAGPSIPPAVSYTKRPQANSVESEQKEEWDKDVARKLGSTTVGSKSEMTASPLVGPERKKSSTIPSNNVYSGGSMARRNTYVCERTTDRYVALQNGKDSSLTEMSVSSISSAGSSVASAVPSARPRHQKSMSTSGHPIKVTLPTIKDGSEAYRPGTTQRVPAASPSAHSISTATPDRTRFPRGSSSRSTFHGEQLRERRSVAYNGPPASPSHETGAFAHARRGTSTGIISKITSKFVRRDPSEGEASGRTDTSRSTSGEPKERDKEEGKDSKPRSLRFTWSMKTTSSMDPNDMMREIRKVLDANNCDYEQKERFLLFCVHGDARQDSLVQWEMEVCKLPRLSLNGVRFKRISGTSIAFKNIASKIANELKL

[9] = biological target: T4, Non-receptor tyrosine-protein kinase TNK1 (Homo sapiens) (UniProt Q13470); assay: Selectivity interaction (KinomeScan (DiscoverX)) EUB0000655a TNK1; conditions: at 10 µM
T4 sequence (whole entry): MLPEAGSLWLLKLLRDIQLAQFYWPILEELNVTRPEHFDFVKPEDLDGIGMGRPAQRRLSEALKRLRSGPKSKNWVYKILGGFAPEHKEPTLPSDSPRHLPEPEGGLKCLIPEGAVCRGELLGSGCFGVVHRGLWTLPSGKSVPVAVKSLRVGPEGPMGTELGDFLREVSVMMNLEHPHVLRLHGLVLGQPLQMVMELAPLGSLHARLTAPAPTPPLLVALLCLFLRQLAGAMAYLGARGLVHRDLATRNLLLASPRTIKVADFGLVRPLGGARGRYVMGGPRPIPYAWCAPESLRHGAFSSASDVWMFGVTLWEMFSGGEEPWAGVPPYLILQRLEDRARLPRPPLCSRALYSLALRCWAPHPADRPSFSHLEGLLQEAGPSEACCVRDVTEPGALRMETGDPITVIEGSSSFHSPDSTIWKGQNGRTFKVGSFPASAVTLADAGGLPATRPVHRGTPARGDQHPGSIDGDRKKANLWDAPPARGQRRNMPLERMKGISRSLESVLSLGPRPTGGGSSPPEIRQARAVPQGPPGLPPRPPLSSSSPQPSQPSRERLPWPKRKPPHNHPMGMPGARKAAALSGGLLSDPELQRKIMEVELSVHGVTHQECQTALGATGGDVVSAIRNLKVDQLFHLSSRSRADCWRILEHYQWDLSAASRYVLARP

Sequence of Tyrosine-protein kinase ABL1 (Homo sapiens), P00519 [F317I] (P00519 whole entry F317I): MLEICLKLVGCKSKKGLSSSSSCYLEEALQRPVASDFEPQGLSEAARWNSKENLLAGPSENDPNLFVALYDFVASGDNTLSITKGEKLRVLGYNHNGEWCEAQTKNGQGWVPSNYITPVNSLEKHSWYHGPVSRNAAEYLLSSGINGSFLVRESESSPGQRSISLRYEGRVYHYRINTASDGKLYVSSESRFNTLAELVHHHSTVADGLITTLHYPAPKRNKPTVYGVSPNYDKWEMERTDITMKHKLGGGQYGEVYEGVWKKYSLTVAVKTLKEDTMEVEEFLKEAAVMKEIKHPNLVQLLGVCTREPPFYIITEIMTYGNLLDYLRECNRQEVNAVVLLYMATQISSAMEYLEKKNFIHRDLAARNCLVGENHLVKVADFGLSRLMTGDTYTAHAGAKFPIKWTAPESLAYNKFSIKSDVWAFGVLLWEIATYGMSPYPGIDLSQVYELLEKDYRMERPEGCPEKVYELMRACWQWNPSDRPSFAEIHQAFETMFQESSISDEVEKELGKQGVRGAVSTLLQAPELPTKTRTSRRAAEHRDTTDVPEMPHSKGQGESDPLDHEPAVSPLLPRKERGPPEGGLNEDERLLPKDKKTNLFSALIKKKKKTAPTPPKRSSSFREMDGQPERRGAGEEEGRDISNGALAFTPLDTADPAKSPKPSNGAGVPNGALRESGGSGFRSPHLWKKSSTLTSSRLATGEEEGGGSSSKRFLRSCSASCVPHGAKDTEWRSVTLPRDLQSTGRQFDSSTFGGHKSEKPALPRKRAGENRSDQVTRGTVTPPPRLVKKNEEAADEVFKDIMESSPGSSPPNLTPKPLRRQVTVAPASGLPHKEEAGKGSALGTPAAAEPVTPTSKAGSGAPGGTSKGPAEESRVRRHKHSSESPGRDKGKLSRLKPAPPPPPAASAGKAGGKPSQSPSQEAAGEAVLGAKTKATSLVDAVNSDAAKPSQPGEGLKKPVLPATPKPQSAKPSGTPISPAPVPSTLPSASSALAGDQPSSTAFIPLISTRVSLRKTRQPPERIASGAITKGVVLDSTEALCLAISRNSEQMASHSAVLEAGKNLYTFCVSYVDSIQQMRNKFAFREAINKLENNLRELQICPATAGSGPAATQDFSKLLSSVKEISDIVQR

SMILES: COc1cc(Nc2nc(C)cc(-c3cnn4nc(OC)ccc34)n2)cc(C(F)(F)F)c1
- % of control [1]: 67%
- % of control [2]: 85%

SMILES: CC[C@@H](Nc1c(C#N)c(-c2ccc(-c3cccc(C)c3F)cc2)nc2cnccc12)C(=O)O [BAY-091]
- % of inhibition [3]: 21.5%

SMILES: CC[C@@H]1[C@H](F)C(=O)N[C@@H]1COc1nccc2cc(C(N)=O)c(OC)cc12 [ZIMLOVISERTIB]
- % of inhibition [4]: 94.3%
- % of inhibition [5]: -5.1%
- % of inhibition [6]: -1.2%

SMILES: COCC(=O)NC/C=C/c1ccc2ncnc(Nc3ccc(Oc4ccc(C)nc4)c(C)c3)c2c1 [CP-724714]
- % of control [7]: 70%

SMILES: CN(C)C/C=C/C(=O)Nc1ccc(C(=O)N2CCCC(Nc3ncc(Cl)c(-c4c[nH]c5ccccc45)n3)C2)cc1 (centres undefined)
- % of control [8]: 100%

SMILES: CN(C)CCOc1ccc(-c2nc(-c3ccncc3)c(-c3ccc4c(c3)CC/C4=N\O)[nH]2)cc1
- % of control [9]: 100%
